PMC3990705, “A p38 Substrate-Specific MK2-EGFP Translocation Assay for Identification and Validation of New p38 Inhibitors in Living Cells: A Comprising Alternative for Acquisition of Cellular p38 Inhibition Data” (PLoS ONE, 2014)
Like-named read-outs stand apart in the source and are kept apart here.

What was measured:
[1] = test system: TNFα release in human whole blood; experiment: Whole blood assay (WBA), TNFα release after LPS stimulation; type: cell-based; details: N = 3, read-out: WBA TNFα IC50 ± SD
Experimental: For determination of inhibitor potency of the compounds by detection of TNFα release in human whole blood an in vitro assay using human whole blood stimulated with LPS for TNFα synthesis is a reliable test system for inhibitors of cytokine synthesis, especially for p38 MAP kinase inhibitors as TNFα synthesis is mainly mediated by p38 MAP kinase. Therefore, the synthesis and release of proinflammatory cytokines in human whole blood from a healthy donor is stimulated using a LPS solution (1 µg/mL, Sigma-Aldrich, Germany) after preincubation of inhibitor dilution (as described in [26]). After 2.5 hours of incubation in a 5% CO2 incubator, the stimulation is stopped and plasma is obtained by centrifugation of the whole blood, followed by TNFα readout from the plasma using a commercially available TNFα ELISA kit (R&D Systems, Germany). The blood sample was obtained with the written informed consent of the donor to participate in this study. The ethics committee (Ethik-Kommission der Medizinischen Fakultät und am Universitätsklinikum Tuebingen) state that an ethical statement is not mandatory when the researchers use their own blood/plasma for experiments. The german statutes and the Declaration of Helsinki are not aimed at experiments using samples provided by the principal investigator him or herself. In the opinion of the committee, the Declaration of Helsinki is designed to protect the patient’s interests and to avoid abuse of the patient’s material.

p38α MAPK = p38α MAPK (Homo sapiens, UniProt Q16539); experiment: Biochemical p38 MAPK activity assay (BAA), ELISA of ATF-2 phosphorylation
p38α MAPK, sequence (Q16539 whole entry): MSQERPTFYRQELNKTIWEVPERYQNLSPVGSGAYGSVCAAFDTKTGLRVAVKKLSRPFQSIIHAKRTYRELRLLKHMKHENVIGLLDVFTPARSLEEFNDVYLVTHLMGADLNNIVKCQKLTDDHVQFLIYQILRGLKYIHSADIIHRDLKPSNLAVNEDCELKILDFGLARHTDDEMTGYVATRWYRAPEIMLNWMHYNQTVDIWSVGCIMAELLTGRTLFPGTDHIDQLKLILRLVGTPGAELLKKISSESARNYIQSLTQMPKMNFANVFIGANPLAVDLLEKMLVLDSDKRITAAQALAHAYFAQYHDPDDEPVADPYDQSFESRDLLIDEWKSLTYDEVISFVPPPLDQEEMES
Experimental: Kinase activity assays were used for identification of p38α MAPK and JNK3 inhibitors. The experimental settings and screening procedures are previously described by Goettert et al., [28].
Briefly, the ELISA assay was performed using 96-well plates (MaxiSorp, NUNC, Germany) by measuring the activity of p38α MAPK after incubation with a candidate inhibitor. Therefore, the phosphorylation degree of activation transcription factor 2 (ATF-2) is detected by a monoclonal peroxidase conjugated antibody in a dilution of 1∶5000 (Sigma-Aldrich, Germany). This monoclonal anti-phospho-ATF-2 (Thr69/71) peroxidase-conjugated antibody reacts specifically with dually phosphorylated ATF-2, detecting neither the mono- nor the unphosphorylated kinase substrate. ATF- 2 is a natural substrate of the p38 MAPKs and JNK3, and its phosphorylation is inversely correlated with the inhibitor potency.

p38 MAPK = biological target: T1, p38 MAPK (Homo sapiens, UniProt Q16539); experiment: MK2-EGFP translocation assay (High Content Analysis); type: cell-based; details: for nuc/cyt ratio at 15 nM ± SD: 15 nM compound, activated U2OS MK2-EGFP cells, N = 3; for potency towards p38 inhibition in the translocation screen: 1.5 µM, 150 nM, 15 nM, normalized to Skepinone-L
T1 construct: endogenous in cells; host or cells: U2OS-MK2-EGFP-clone-RA#2
T1 sequence (Q16539 whole entry): as above
Experimental: Screening was performed in biological duplicates on different days and different cell line passages. For cellular screening ∼ 12.500 cells were seeded into 96-well clear tissue-culture micro-plates (Bio-One µClear, Greiner, Germany) and grown until 90% confluence. The Rac/p38 MAPK pathway was activated by exchanging normal growth media with hyperosmotic media. […] Plates were mixed thoroughly and incubated at 37°C and 5% CO2 in a humidified chamber atmosphere. After 80–90 minutes the treatment was stopped by disposing the media. Subsequently cell were fixed using 3% PFA/PBS in 1x PBS at pH 7.4 for 15 minutes and washed with PBS and PBST (0.05% Tween-20) following nuclear DNA staining using 150 ng/mL DAPI in 1xPBS/35 µg/mL RNAseA. Finally, plates were transferred in an automated cytomat incubator (Thermo Scientific, Germany) combined with a robotic plate handling device (PAA, UK) and subjected to automated image acquisition.
Images of EGFP and DAPI fluorescent cells were acquired using an Image Xpress micro XL microscope (Molecular Devices, Germany). […] On average 400 cells per well were imaged, allowing reliable statistical measures and quantification.
Automated image analysis was carried out using the MetaXpress software (Molecular Devices, Germany). Fluorescence intensity ratios were calculated using the average of the cellular MK2-EGFP fluorescence intensity (Cell: nuclear inner/outer mean intensity) of all images/sites per well. p38 activation was defined as positive when the nucleocytoplasmic MK2-fluorescence intensity ratio was below 0.7. For further analysis, the average of the mean of the entire plate was calculated and used for internal plate normalization. For quality assessment of the screening the Log-Z-score was determined. Obtained values were calculated on the normalized nucleocytoplasmic MK2-fluorescence intensity ratio (average of the mean) of respective data-points.
Image analysis and result calculations were performed as described.

JNK = test system: JNK; set-up: method as in PMID 11717429; details: cited from earlier work
JNK3 = experiment: Phospho-Ser63-c-Jun/JNK assay in U2OS MK2-EGFP cells; type: cell-based, human; details: phospho-c-Jun Ser-63 endpoint, multiplexed with MK2-EGFP assay
Experimental: Compound specificity towards p38 and JNK were analyzed in a secondary JNK activity assay detecting phosphorylated c-Jun (Ser63) as a substrate of JNK. This assay could be easily multiplexed with the MK2-EGFP assay as described by Henriksen et al. [31]. Briefly, stimulated U2OS-MK2-EGFP-clone-RA#2 cells were fixed in 96-well plates with 4% PFA/PBS, blocked and permeabilized with protein-free blocking media (Pierce, USA) in TBS with 0.1% Triton X-100. Samples were incubated overnight at 4°C with an antibody directed against phospho-c-Jun Ser63 (#9261, Cell Signaling Technology, USA) diluted 1∶150 in TBST followed by detection with an Alexa647-goat-α-rabbit (Life Technologies, Germany). After washing procedures cells were subjected to image acquisition and automated image-analysis as described.

U2OS MK2-EGFP cells = experiment: Cellular viability assay (AlamarBlue); type: cell-based, human; details: 24 h, 15 nM–15 µM
Experimental: The cellular viability assay was performed according to standard procedures (for details see AlamarBlue manual #DAL1100, Life Technologies, Germany). Briefly, ∼ 15.000 cells of the U2OS MK2-EGFP clone-RA#2 cell line were plated in 96 well µclear plate and grown in growth media until sub-confluency. Subsequently, cells were treated with compounds in indicated concentrations for 24 h at 37°C in a humidified chamber containing 5% CO2. After compound treatment the amount of living cells was monitored microscopically and cell-viability was determined using the AlamarBlue assay. For this purpose, resazurin was added freshly to the growth media devoid of phenol red as described. The media premixed with the resazurin substrate was pre-warmed to 37°C and 200 µL were added to the pre-treated cells in the 96-well plate. Following incubation at 37°C, 5% CO2 for 4 h the fluorescence of the media was measured in a PHERAstar photometer (BMG Labtech, USA) with the filter sets: Ex: 540nm/Em: 580nm.

[2] = inhibition of phosphorylation of ATF2, N = 3, read-out: BAA p38 IC50 ± SD

Compound	IC50 [1] [nM]	IC50 (p38α MAPK; read-out: BAA p38 IC50 ± SD) [nM]	nuc/cyt ratio at 15 nM ± SD (p38 MAPK)	other results
Nc1ccccc1Nc1ccc2c(c1)CCc1ccc(OC[C@H](O)CO)cc1C2=O [LN809]	47	10.1	1,064±0,1062	–
CC(C)Nc1cc(-c2[nH]c(SCCO)nc2-c2ccc(F)cc2)ccn1 [LN957]	129	–	1,158±0,0756	IC50 (p38α MAPK; [2]): 3 nM
O=C(Nc1cc(Nc2ccc3c(c2)CCc2ccc(OCCN4CCOCC4)cc2C3=O)c(F)cc1F)c1ccccc1 [LN1503]	221	1.3	1,057±0,0332	–
CC(C)Nc1cc(-c2[nH]c(SC[C@H](O)CO)nc2-c2ccc(F)cc2)ccn1 [LN954]	182	5.7	1,068±0,0406	–
Oc1c2ccccc2c2c3c(cccc13)N=N2 [SP600125]	–	–	–	selectivity over p38 (JNK): 300 fold; inhibition of p38 and JNK3 (selectivity) (JNK3): Selective inhibition of JNK3 activity
CC(C)C(C)Nc1cc(-c2[nH]c(SCCCO)nc2-c2ccc(F)cc2)ccn1 (stereo not shown) [LN949]	173	11.7	1,111±0,0012	–
CC(C)Sc1nc(-c2ccc(F)cc2)c(-c2ccnc(NC3CCOCC3)c2)[nH]1 [RN4296]	–	3.7	1,288±0,2483	potency towards p38 inhibition in the translocation screen (p38 MAPK): most potent compound towards p38 inhibition
O=C(NCC(O)CO)c1ccc2c(c1)C(=O)c1ccc(Nc3cc(NC(=O)c4ccsc4)c(F)cc3F)cc1CC2 (stereo not shown) [LN1878]	–	1.9	1,211±0,1416	–
O=C1c2ccc(Nc3ccc(F)cc3F)cc2CCc2ccc(OC[C@H](O)CO)cc21 [Skepinone-L, reference compound]	59	–	–	cytotoxic effects / cellular viability (U2OS MK2-EGFP cells): do not affect cellular viability; cellular effectiveness in log-dilution experiments (p38 MAPK; 0 µM –100 µM, living cells): inhibits p38 from 10 nM –1 µM in living cells; potency towards p38 inhibition in the translocation screen (p38 MAPK): outstanding potency; effect on nuclear export of MK2-EGFP (p38 MAPK; 10 µM compound): abolishes nuclear export of MK2-EGFP
CNC(=O)c1ccc2c(c1)C(=O)c1ccc(Nc3ccc(F)cc3F)cc1CC2 [LN1496]	37	3.2	1,088±0,0231	–
O=C(Nc1cc(Nc2ccc3c(c2)CCc2ccc(OCCN4CCOCC4)cc2C3=O)c(F)cc1F)c1ccsc1 [LN1637]	6	–	1,206±0,0326	IC50 (p38α MAPK; [2]): 0.5 nM; IC50 (p38α MAPK; summary of Table 1, read-out: BAA, IC50): 5 nM
O=C(Nc1cc(Nc2ccc3c(c2)CCc2ccc(OCCN4CCOCC4)cc2C3=O)ccc1F)c1ccoc1 [LN1311]	106	1.1	1,088±0,0781	–
